Test results as given in US5030638A, “Method of antiviral enhancement” (priority 1990, dated 1991).
In brackets after ≈: the same amount, converted by molar mass. Read-outs that look alike come from different tables or passages of the source.

What was measured:
[1] = tested on: glucosidase; details: Fleet et al.; cited from earlier work
[2] = tested on: HIV; details: cited from earlier work; for HIV inhibitory / antiviral activity: literature
[3] = tested on: visna virus; experiment: Plaque reduction assay, inhibition of visna virus in vitro; format: cell-based; details: Visna-maedi virus, read-out: Antiviral Activity (plaque reduction)
Description: (§1) Sheep choroid plexus(SCP) cells were obtained from American Type Culture Collection (ATCC) catalogue number CRL 1700 and were routinely passaged in vitro in Dulbecco's Modified Eagles (DME) medium supplemented with 20% fetal bovine serum (FBS). SCP cells were passaged once per week at a 1:2 or 1:3 split ratio. Visna was titrated by plaque assay in six-well plates. Virus pools were stored at -70° C.
(§2) SCP cells were cultured in 6-well plates to confluence. Wells were washed two times with serum free Minimal Essential Medium (MEM) to remove FBS. 0.2 ml of virus was added per well in MEM supplemented with 4 mM glutamine and gentamycin. After 1 hour adsorption, the virus was aspirated from each well. The appropriate concentration of each compound in 5 ml of Medium 199 (M-199) supplemented with 2% lamb serum, 4 mM glutamine, 0.5% agarose and gentamycin was added to each well. […] To terminate the test: cultures were fixed in 10% formalin, the agar removed, the monolayers stained with 1% crystal violet and plaques counted. Each compound concentration was run in triplicate. […] 0 is no toxicity observed while 4 is total lysing of the cell monolayer.

[4] = molecular target: glucosidase I; details: Schweden et al.; compared to N-methyl- and N-butyl-derivatives; cited from earlier work
[5] = tested on: Sheep choroid plexus (SCP) cells; experiment: Toxicity in control wells (without virus) of the plaque reduction assay; format: cell-based; set-up: key: 0: no toxicity; 4: total cell lysates; details: graded 0 to 4
Description: as §1, §2
Toxicity graded on 0 to 4 scale 0 = no toxicity, 4 = total cell lysates

[6] = molecular target: T1, yeast α-glucosidase (Saccharomyces cerevisiae, UniProt P53341); experiment: Alpha-glucosidase inhibition assay, pH 7.4; format: biochemical
T1 construct: purchased Sigma
Description: (§3) Yeast alpha-glucosidase and almond beta-glucosidase activities were measured by a modification of the method of Evans, et al., Phytochemistry 22, 768-770 (1983). The modifications included 1) assay of activities at pH 7.4 in HEPES (N-2-hydroxyethylpiperazine-N'-2-ethanesulfonic acid) buffer, 2) measurement in 96 well microtiter plates and 3) inclusion of 10% DMSO in control and test samples.
(§4) The release of p-nitrophenol from the substrate p-nitrophenylglycoside was measured spectrophotometrically in the presence and absence of test compound. Each assay included a known inhibitor of the enzyme as a standard.
To 100 μl 50 mM HEPES buffer, pH 7.4, in a microtiter plate, add 20 μl test compound in DMSO (DMSO alone in control), 40 μl (0.013 units) yeast alpha-glucosidase (Sigma) in HEPES buffer and pre-incubate at room temperature for 15 minutes. Add 40 μl 1.25 mM p-nitrophenyl-alpha-D-glucopyranoside (Sigma) in HEPES buffer, as substrate, and monitor absorbance change at 405 nm in Biotek EIA Auto-reader. Absorption change was measured at 15 to 25 minutes (reaction was linear for at least 30 minutes). Each sample was tested in triplicate. […] Deoxynojirimycin was used as standard inhibitor.

[7] = molecular target: almond β-glucosidase; experiment: Beta-glucosidase inhibition assay, pH 4.8; format: biochemical; details: for IC50: read-out: Enzyme Inhibition-IC50, Almond β-Glucosidase pH 4.8
Description: as §3, §4
To 100 μl 50 mM sodium citrate buffer, pH 4.8, in a microtiter plate, add 15 μl test compound in DMSO (DMSO alone in control), 20 μl (0.017 units) beta-glucosidase (Sigma) in citrate buffer and pre-incubate at room temperature for 15 minutes. Add 25 μl 2.50 mM p-nitrophenyl-beta-D-glucopyranside in citrate buffer, as substrate. […] Add 50 μl 0.4M NaOH. Read absorption change at 405 nm in a Biotek EIA Autoreader. Each sample was tested in triplicate. […] Castanospermine was used as standard inhibitor.

[8] = Solubility in aqueous solvent (antiviral test); format: physicochemical
[9] = tested on: HIV-1, strain HTLV-IIIB; experiment: Reduction of cytopathogenic effect (CPE) in HIV-1 infected CEM cells, MTT assay; format: cell-based; details: for inhibition at 1 µg/mL / inhibition at 3.2 µg/mL / inhibition at 10 µg/mL / inhibition at 32 µg/mL / inhibition at 500 µg/mL / inhibition at 100 µL/mL / IC50: Human immunodeficiency virus 1, IIIB, CCRF-CEM, 216 h; for inhibition at 1 µg/mL: 1.0 μg/ml; for inhibition at 1 µg/mL / inhibition at 3.2 µg/mL / inhibition at 10 µg/mL / inhibition at 32 µg/mL / inhibition at 500 µg/mL / inhibition at 100 µL/mL: read-out: Percent Reduction of CPE; for inhibition at 3.2 µg/mL: 3.2 μg/ml; for inhibition at 10 µg/mL: 10 μg/ml; for inhibition at 32 µg/mL: 32 μg/ml; for inhibition at 500 µg/mL: 500 μg/ml; for inhibition at 100 µL/mL: 100 μl/ml (so in the source); for IC50: read-out: ID50 (median inhibitory dose); for inhibition of HIV-1: in vitro
Description: These tests involved plating of susceptible human host cells which are syncytium-sensitive with and without virus in microculture plates, adding various concentrations of the test compound, incubating the plates for 9 days (during which time infected, non-drug treated control cells are largely or totally destroyed by the virus), and then determining the number of remaining viable cells using a colorimetric endpoint.
Tissue culture plates were incubated at 37° C. in a humidified, 5% CO2 atmosphere and observed microscopically for toxicity and/or cytopathogenic effect (CPE). At 2 and 6 days after infection, fresh dilutions of each test article were prepared from the frozen stock, and a 20 μl volume of each dilution (prepared as a 10× concentration was added to the appropriate wells of both infected and uninfected cells.
On the 9th day post-infection, the cells in each well were resuspended and a 100 μl sample of each cell suspension was removed for use in an MTT assay. A 20 μl volume of a 5 mg/ml solution of 3-(4,5-dimethylthiazol-2-yl)-2,5-diphenyltetrazolium bromide (MTT) was added to each 100 μl cell suspension, and the cells were incubated at 37° C. in 5% CO2 for 4 hours. […] A 100 μl volume of a solution of 10% sodium dodecyl sulfate in 0.01N hydrochloric acid wa added to each sample, and the samples were incubated overnight. The absorbance at 590 nm was determined for each sample using a Molecular Devices Vmax microplate reader. This assay detects drug-induced suppression of viral CPE, as well as drug cytotoxicity, by measuring the generation of MTT-formazan by surviving cells.
Assays were done in 96-well tissue culture plates. CEM cells were treated with polybrene at a concentration of 2 μg/ml, and an 80 μl volume of cells (1×10^4 cells) was dispensed into each well. A 100 μl volume of each test article dilution (prepared as a 2× concentration) was added to 5 wells of cells, and the cells were incubated at 37° C. for 1 hour. A frozen culture of HIV-1, strain HTLV-IIIB, was diluted in culture medium to a concentration of 5×10^4 TCID50 per ml, and a 20 μl volume (containing 10^3 TCID50 of virus) was added to 3 of the wells for each test article concentration. […] A 20 μl volume of normal culture medium was added to the remaining wells to allow evaluation of cytotoxicity. Each plate contained 6 wells of untreated, uninfected, cell control samples and 6 wells of untreated, infected, virus control samples. Dideoxycytidine (DDC) and dideoxyadenosine (DDA) were included as positive control compounds.

[10] = molecular target: almond β-glucosidase; experiment: Beta-glucosidase inhibition assay, pH 7.4; format: biochemical; details: for IC50: read-out: Enzyme Inhibition-IC50, Almond β-Glucosidase pH 7.4; for Inhibition Index (first, head is drawing 3) / Inhibition Index (second, head is drawing 4): ratio of IC50 values; for Inhibition Index (first, head is drawing 3): numerically almond pH 4.8 / almond pH 7.4; for Inhibition Index (second, head is drawing 4): numerically yeast α pH 7.4 / almond β pH 7.4
Description: as §3, §4
To 100 μl 50 mM HEPES buffer, pH 7.4, in a microtiter plate, add 20 μl test compound in DMSO (DMSO alone in control), 40 μl (0.136 units) beta-glucosidase (Sigma) in HEPES buffer and pre-incubate at room temperature for 15 minutes. Add 40 μl 1.25 mM p-nitrophenyl-beta-D-glucopyranoside in HEPES buffer, as substrate and monitor absorbance change at 405 nm in a Biotek EIA Autoreader. Absorption change was measured at 15 to 25 minutes (reaction is linear for at least 30 minutes). Each sample was tested in triplicate. […] Castanospermine was used as standard inhibitor.

[11] = Assay for excretion of metabolites in urine of rats; format: in vivo, rat
[12] = rat
[13] = Preliminary pharmacokinetic tests in rats, total radioactivity in the blood; details: rat
[14] = in vivo; cited from earlier work
[15] = HIV-1, CEM cells, reduction of CPE

T1 sequence (P53341 whole entry): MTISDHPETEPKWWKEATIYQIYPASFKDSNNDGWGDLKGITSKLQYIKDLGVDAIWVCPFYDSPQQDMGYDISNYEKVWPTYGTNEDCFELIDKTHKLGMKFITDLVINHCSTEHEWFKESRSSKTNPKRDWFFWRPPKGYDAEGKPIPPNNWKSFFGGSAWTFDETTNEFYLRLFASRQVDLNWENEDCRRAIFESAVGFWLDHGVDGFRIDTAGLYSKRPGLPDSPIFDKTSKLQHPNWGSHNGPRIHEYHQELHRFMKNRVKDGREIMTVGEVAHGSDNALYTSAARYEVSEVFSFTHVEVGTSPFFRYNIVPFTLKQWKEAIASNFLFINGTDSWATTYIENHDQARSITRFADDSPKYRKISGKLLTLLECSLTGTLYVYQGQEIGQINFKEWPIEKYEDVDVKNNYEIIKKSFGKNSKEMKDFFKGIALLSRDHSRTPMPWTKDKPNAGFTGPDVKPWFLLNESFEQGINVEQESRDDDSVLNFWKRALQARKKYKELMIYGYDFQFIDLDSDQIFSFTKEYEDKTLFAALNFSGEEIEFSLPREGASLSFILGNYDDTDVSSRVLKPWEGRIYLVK

OC[C@H]1NC[C@@H](O)[C@@H]1O (single isomer, unassigned) [D-enantiomer, 1,4-dideoxy-1,4-imino-arabinitol]
glucosidase inhibition [1]: known glucosidase inhibitors
HIV inhibitory / antiviral activity [2]: very little effect on HIV replication

OC[C@H]1NC[C@@H](O)[C@@H]1O (single isomer, unassigned) [L-enantiomer, 1,4-dideoxy-1,4-imino-arabinitol]
glucosidase inhibition [1]: known glucosidase inhibitors
HIV inhibitory / antiviral activity [2]: strong HIV inhibitory activity

CCCCCCN1C[C@H](O)[C@@H](O)[C@H](O)[C@H]1CO [Example 2, 1,5-(Hexylimino)-1,5-dideoxy-D-glucitol]
inhibition at 1 µM ([3]; 1 μM): 100%
inhibition at 10 µM ([3]; 10 μM): 94%
Ki, glucosidase I [4]: greater Ki values than the N-methyl- and N-butyl-derivatives
Toxicity ([5]; 1 μM): 2
Toxicity ([5]; 10 μM): 0
IC50 ([6]; pH 7.4, read-out: Enzyme Inhibition-IC50, Yeast α-Glucosidase pH 7.4): 371 µM
IC50 [7]: 144 µM
Solubility [8]: Solubility problem; compound did not completely dissolve
ID50 compared to N-butyl-DNJ ([9]; HIV-1, CEM cells): advantageous reduction in ID50
inhibition at 1 µg/mL [9]: 0%
inhibition at 3.2 µg/mL [9]: 15.6%
inhibition at 10 µg/mL [9]: 65.6%
inhibition at 32 µg/mL [9]: 68%
inhibition at 500 µg/mL [9]: 147%
inhibition at 100 µL/mL [9]: 65.1%
IC50 [9, 15]: 7.3 µg/mL (≈ 29.5 µM)
inhibition of HIV-1 [9]: demonstrated to inhibit HIV-1
IC50 ([10]; pH 7.4): 4.8 µM
Inhibition Index (first, head is drawing 3) [10]: 30
Inhibition Index (second, head is drawing 4) [10]: 77.3

CCCCCCCCCN1C[C@H](O)[C@@H](O)[C@H](O)[C@H]1CO [Example 3, 1,5(Nonylimino)-1,5-dideoxy-D-glucitol]
metabolism [11]: metabolized
inhibition at 10 µM [3]: 69%
inhibition at 1000 µM [3]: 100%
t1/2 in vivo [12]: 6.24 h
Toxicity ([5]; 10 μM): 0
Toxicity ([5]; 1 mM): 4
IC50 [6]: 267 µM
IC50 [7]: 196 µM
ID50 compared to N-butyl-DNJ ([9]; HIV-1, CEM cells): advantageous reduction in ID50
IC50 [9]: 6.9 µg/mL (≈ 23.8 µM)
inhibition at 1 µg/mL [9]: 0%
inhibition at 3.2 µg/mL [9]: 25.7%
inhibition at 10 µg/mL [9]: 62.5%
inhibition at 32 µg/mL [9]: 28.9%
inhibition of HIV-1 [9]: demonstrated to inhibit HIV-1
IC50 ([10]; pH 7.4): 18 µM
Inhibition Index (first, head is drawing 3) [10]: 10.8
Inhibition Index (second, head is drawing 4) [10]: 14.8

CCCCCCCCCCCCCCN1C[C@H](O)[C@@H](O)[C@H](O)[C@H]1CO [Example 4, 1,5-(Tetradecylimino)-1,5-dideoxy-D-glucitol]
inhibition at 10 µM ([3]; 10 μM): 84%
inhibition at 100 µM ([3]; 0.1 mM): 100%
inhibition at 1000 µM ([3]; 1 mM): 100%
Toxicity ([5]; 10 μM): 1
Toxicity ([5]; 0.1 mM): 4
Toxicity ([5]; 1 mM): 4
inhibition at 10 µM ([6]; pH 7.4, at 10 μM, read-out: Enzyme Inhibition, Yeast α-Glucosidase pH 7.4): 0%
Enzyme Inhibition, Almond β-Glucosidase pH 4.8 ([7]; at 10 μM): 22%
Enzyme Inhibition, Almond β-Glucosidase pH 7.4 ([10]; pH 7.4, at 10 μM): 31%

CCCCN1C[C@H](O)[C@@H](O)[C@H](O)[C@H]1CO [N-Butyl-DNJ, Nbutyl-deoxynojirimycin, reference compound]
metabolism [11]: not metabolized
t1/2 in vivo [13]: 1.24 h
gastrointestinal side effects [14]: gastrointestinal side effects seen
inhibition at 10 µM ([3]; 10 μM): 57%
inhibition at 1000 µM ([3]; 1 mM): 100%
Toxicity ([5]; 10 μM): 0
Toxicity ([5]; 1 mM): 0
IC50 [6]: 536 µM
reduction of infectious viral particles ([2]; Karpas et al., at nontoxic concentrations): greater than five
HIV inhibitory / antiviral activity [2]: significant antiviral activity
Solubility [8]: Solubility problem; compound did not completely dissolve
inhibition at 10 µg/mL [9]: 42.6%
inhibition at 32 µg/mL [9]: 49.8%
inhibition at 500 µg/mL [9]: 50.7%
inhibition at 100 µL/mL [9]: 53.3%
IC50 [9, 15]: 34 µg/mL (≈ 155 µM)

CCCCCCCCCCN1C[C@H](O)[C@@H](O)[C@H](O)[C@H]1CO [N-decyl-derivatives, reference compound]
Ki, glucosidase I [4]: greater Ki values than the N-methyl- and N-butyl-derivatives
